Data reported in US7879914B2, “Methods for treating viral infections using polyamine analogs” (Pathlogica LLC, priority 2005, dated 2011).

System: SIVmac251
Assay: SIVmac251-infected, CD8-depleted rhesus macaques, escalating doses
Type: in vivo, rhesus macaque
Description: For these experiments, rhesus macaques were infected with SIVmac251 and depleted of CD8+ T lymphocytes by administration of a humanized CD8-depleting antibody. […] These monkeys were then treated with escalating doses of MGBG.
The animals were treated with MGBG (PA-001) beginning five days post infection (p.i.) with 200 mg/m^2 PA-001, and then treated 7 and 14 days later with 300 mg/m^2 and 400 mg/m^2, respectively of PA-001.
Rhesus macaques similar to those described in Example 9 were used for these studies. An SIVmac251-infected, CD8-depleted monkey was treated with PA-001 (MGBG) beginning five days p.i. with 200 mg/m^2 PA-001, and then treated 7 and 14 days later with 300 mg/m^2 and 400 mg/m^2, respectively of PA-001. A control monkey was SIVmac251-infected and CD8-depleted, but not treated with PA-001. Blood macrophages from control and treated monkeys were sorted every week into three subsets: CD14+/16−, CD14+/16+ and CD14−/16+ where CD14− indicates a low level of CD14 expression. Quantitative SIV PCR analysis of the sorted subsets was subsequently performed.

With CC(/C=N/NC(=N)N)=N\NC(=N)N [MGBG] the “levels of CD14+CD16+ monocytes in blood” value (200, 300, 400 mg/m^2 from five days p.i., by day 21 p.i.) was “depleted below detectable levels”, the “perivascular cuffs and virus in the CNS” value (21 days p.i., preliminary histopathological analysis) was “did not have perivascular cuffs or detectable virus” and the “SIV DNA in sorted blood macrophage subsets” value (after the first and second dose, quantitative SIV PCR) was “no longer had any detectable SIV DNA”. The “decrease in Mac387 stained monocyte/macrophage cell number in lymph node” value (compared to untreated animals) was 50-80% and the “plasma virus versus control” value (treated animals vs untreated control) was “did not show significant differences”.
